Measured values reported in a melting point compilation (Tetko et al.; mined from patent text by program, amines drawn as free bases though some values may be those of a salt).

Row | melting point | Compound
1 | 177 to 179 °C | CCOCc1nc2c(N)nc3ccccc3c2n1NCCCNC(=O)Nc1ccccc1
2 | 164 °C | CC(C)(C)OC(=O)[C@@H]1CS[C@H](c2ccccc2)N1C(=O)CNC(=O)Nc1cccc(CCO)c1
3 | 160 to 161 °C | CCC1(CC)CC(c2ccc(OC)c(OC)c2)=NN(C2CCN(C(=O)c3ccccc3)CC2)C1=O
4 | 151 to 154 °C | CCOc1ccnc(N2CCN(C(=O)c3ccccc3C#N)CC2)n1
5 | 149 to 150 °C | CC1=NN(c2cc(-c3ccnc(Nc4cccc(Cl)c4)n3)ccn2)C(=O)C1
6 | 206 to 208 °C | O=C1c2ccccc2C(O)(c2ccc(Cl)cc2)N1CCc1ccc([N+](=O)[O-])cc1 (stereo not given)
7 | 109 to 110 °C | O=C(Cc1ccc(F)cc1)c1ccccc1
8 | 161 to 162 °C | O=C(Nc1ccccc1)NC1CCN(Cc2ccccc2)CC1
9 | 153 to 155 °C | O=C(NCc1ccccn1)Nc1cc(N2CC(c3ccc(F)cc3)CC2=O)ccn1 (stereo not given)
10 | 35 to 37 °C | O=C(c1ccccc1)c1cccnc1Cl
11 | 167 to 169 °C | O=C(c1ccccc1)N1CCCC1c1cccc(O)c1 (stereo not given)
12 | 193 to 196 °C | CCOC(=O)COc1ccc(SCc2cccc3nc(-c4ccc(C(F)(F)F)cc4)sc23)cc1C
13 | 222 to 224 °C | O=c1ccc(-c2c(-c3ccccc3)nn3ccccc23)c[nH]1
14 | 265 to 266 °C | Cn1ncc(/C=C/C(=O)Nc2ccc3c(c2)oc(=O)n3C)c1-c1ccc(F)cc1
15 | 169 to 172 °C | Cc1cn(-c2cc(NC(=O)c3cccc4cc(O)ccc34)cc(C(F)(F)F)c2)cn1
16 | 205 to 208 °C | COc1ccc(Cl)c2c1c1c(n2Cc2ccccc2)CCCC1C(N)=O (stereo not given)

Continued, compound first:

Row | Compound | melting point
17 | N#Cc1cc([N+](=O)[O-])ccc1N1CCC(N2CCCCC2)CC1 | 134 to 135 °C
18 | COc1ccc(-c2cn(CCCC#N)c3c(OC)ccc(OC)c3c2=O)cc1 | 126 to 127 °C
19 | CC1=NN=C(c2cc3ccccc3s2)c2cc3oc(=O)[nH]c3cc2C1 | 338 to 340 °C
20 | O=C(O)COc1c(Br)cc2oc(C(=O)c3ccccc3)cc2c1Br | 179 to 181 °C
21 | Cc1cc([N+](=O)[O-])c(C(=O)O)cc1F | 163 to 165 °C
22 | CCCN1CCN(c2ncc3c(=O)c(C(=O)O)cn(CC)c3n2)CC1 | 149 °C
23 | O=c1[nH]c2cc(Cl)cc(Cl)c2c(=O)n1Cc1ccc([N+](=O)[O-])cc1 | 227 to 230 °C
24 | CC(=O)SCCC1C(=O)N2CCCC(C(=O)OC(C)(C)C)N2C1=O (stereo not given) | 86 to 88 °C
25 | CCCCn1ccc(C(=O)c2cc(C(C)(C)C)c(O)c(C(C)(C)C)c2)c1 | 101 to 103 °C
26 | COc1ccc(NS(=O)(=O)c2cc(OC)c(OC)c(OC)c2)cc1O | 145 to 146 °C
27 | O=C1c2ccncc2C(=O)c2c(F)ccc(O)c21 | 189 to 192 °C
28 | COC(=O)c1ccc2oc3c(c(=O)c2c1)CCC3=Cc1ccccc1C | 203 to 205 °C
29 | COc1ccc(C2CCC(=O)CC2=O)cc1 (stereo not given) | 150 to 151 °C
30 | CC1(C)CCC(C)(C)c2cc(NC(=O)c3ccc(C(=O)O)cc3O)ccc21 | 286 to 287 °C
31 | COC(=O)Nc1cc2c(=O)n(NS(C)(=O)=O)c(=O)[nH]c2cc1C(F)(F)F | 232 to 240 °C
32 | COc1cc(O)c2c(=O)[nH]c(-c3cc(C)c(O)c(C)c3)nc2c1 | 291 to 293 °C
33 | O=C(Nc1cccnc1)N1CCc2cc(Cl)c(Cl)cc21 | 236 to 238 °C
34 | CC(C)(C)OC(=O)COC1CCN(CC2CN(c3ccc(CN)cc3)C(=O)O2)CC1 (stereo not given) | 95 to 96 °C
35 | C[C@@H]1C[C@@H]([C@H](CC2CCCCC2)NC(=O)OC(C)(C)C)OC1=O | 80 to 82 °C
36 | COC(=O)C1=C(C)NC(C)=C(C(=O)OC)C1CCCCC(=O)O | 150 to 151 °C
37 | NC(=O)c1ccc(CCCCCCN2CCOCC2)cc1O | 70 to 73 °C
38 | NP(N)(=O)NC(=O)CCc1ccccc1 | > 300 °C
39 | COC(=O)c1ccc(S(C)(=O)=O)c(-c2nccs2)c1Cl | 135 to 138 °C
40 | CCCNc1c2c(nc3ccccc13)CCCC2=O | 145 °C
